{"source": "patent US8252832B2", "about": "“Kinesin inhibitors as cancer therapeutics” (Novartis AG, priority 2007, dated 2012)", "test_in_all_cases": "CellTiter-Glo, hematologic malignancy panel", "type_in_all_cases": "cell-based", "key": {"CCRF-CEM": {"test_system": "CCRF-CEM", "conditions": "ALL; for GI50: Homo sapiens", "excerpt": "(§1) Identification of tumor types that are the most sensitive to the KSP inhibitors of the present invention can be accomplished using an unbiased approach that uses several cell-based assays. The assays chosen were as follows: • CellTiter-Glo®. This is an assay designed to measure ATP concentration in a cell culture, and can be correlated to cell number. Briefly CellTiter-Glo® (Promega Corporation) is a homogeneous method using the single CellTiter-Glo® reagent to detect ATP wherein ATP in the assay drives the activity of a thermostable luciferase to create a luminescent signal which can then be measured and correlated with the number of viable cells. Briefly, for adherent cells, 1,000 to 5,000 cells/well were plated in 96-well plates (100 μl/well) and let to adhere for 24 hours before being treated with drug. For non-adherent cells, 1,000 to 10,000 cells/well were plated in 96-well plates (100 μl/well) and immediately treated with drug. Drug dilutions were prepared in DMSO at 1000 times the final concentration. These dilutions were then diluted 1/100 in growth media before being added to the cells (11 μl/well) to achieve the desired final concentration. After 48 h in a 37° C. tissue culture incubator, the plates were processed for the CellTiter-Glo®assay according to the manufacturer's instructions. Protocol for a 72 hour cell proliferation assay: The 72 hour assay was performed the same way as the 48 hour assay except for the following modifications: For adherent cells, 500 to 5,000 cells/well were plated in 96-well plates (90 μl/well cell growth media) and left to adhere for 24 hours before being treated with drug. For non-adherent cells, 1,000 to 10,000 cells/well were plated in 96-well plates (90 μl/well cell growth media) and immediately treated with drug. Data values presented represent the concentration of test compound required for a 50% reduction in growth. • LDH release. The Cytotoxicity Detection KitPLUS (LDH) assay (Roche Diagnostics, Manheim, Germany) measures the amount of LDH released in the media by dying cells; LDH catalyzes the conversion of lactate into pyruvate. The enzymatic reaction is coupled to a chemical reaction that uses a tetrazolium salt to form a formazan that is red and can be detected by its absorbance at 490 nm. This assay measures the amount of cell death after drug treatment. Cells were plated at 10,000 cells/well in 96-well plates (100 μl/well). Adherent cells were let to adhere for 24 hours before being treated with drug, whereas non-adherent cells were immediately treated with drug. Drug dilutions were prepared in DMSO at 1000 times the final concentration. These dilutions were then diluted 1/100 in growth media before being added to the cells (11 μl/well) to achieve the desired final concentration. After 48 h in a 37° C. tissue culture incubator, the plates were processed for the Cytotoxicity Detection KitPLUS (LDH) assay according to the manufacturer's instructions. The media only values were subtracted from all the data points before analysis. Data values presented correspond to the compound concentration wherein LDH output is at half maximal level. • Caspase-Glo® 3/7. The Caspase-Glo® 3/7 Assay (Promega Corporation) is a homogeneous luminescent assay that measures caspase-3/7 activities. The assay provides a proluminescent caspase-3/7 DEVD-aminoluciferin substrate and a thermostable luciferase in a reagent optimized for caspase-3/7 activity, luciferase activity and cell lysis. Adding the single Caspase-Glo® 3/7 Reagent results in cell lysis, followed by caspase cleavage of the substrate. This liberates free aminoluciferin, which is consumed by the luciferase, generating a luminescent signal. The signal is proportional to caspase-3/7 activity. Data values presented correspond to the compound concentration wherein caspase 3/7 activity is at half maximal level. […]"}, "HEL92": {"test_system": "HEL92", "conditions": "AML", "excerpt": "as §1"}, "HL60-Luc": {"test_system": "HL60-Luc", "conditions": "AML; for GI50: HL-60-Luc", "excerpt": "as §1"}, "KM-H2": {"test_system": "KM-H2", "conditions": "HL; for GI50: Homo sapiens", "excerpt": "as §1"}, "KMS18-Luc": {"test_system": "KMS18-Luc", "conditions": "MM", "excerpt": "as §1"}, "LP1": {"test_system": "LP1", "conditions": "for GI50: Homo sapiens, LP-1, MM", "excerpt": "as §1"}, "MOLM13-Luc": {"test_system": "MOLM13-Luc", "conditions": "AML", "excerpt": "as §1"}, "OPM2": {"test_system": "OPM2", "conditions": "for GI50: Homo sapiens, OPM-2, MM", "excerpt": "as §1"}, "RPMI-8226": {"test_system": "RPMI-8226", "conditions": "MM; for GI50: Homo sapiens", "excerpt": "as §1"}, "SEM-Luc": {"test_system": "SEM-Luc", "conditions": "ALL", "excerpt": "as §1"}, "SET-2": {"test_system": "SET-2", "conditions": "AML; for GI50: Homo sapiens", "excerpt": "as §1"}, "[1]": {"conditions": "GI50 in nM, read-out: Log(GI50) (converted)"}}, "note": "Like-named read-outs stand apart in the source and are kept apart here."}
{"smiles": "CC(C)(C)[C@H](c1nc(-c2cc(F)ccc2F)cn1Cc1ccccc1)N(CC[C@H](N)CF)C(=O)CO", "note": "[Compound IIa]", "values": [{"measurement": "Differential vs mean Log(GI50)", "setting": "CCRF-CEM", "result": 0.315}, {"measurement": "GI50", "setting": "CCRF-CEM; [1]", "result": 0.164, "unit": "nM"}, {"measurement": "GI50", "setting": "CCRF-CEM; read-out: GI50", "result": 0.16, "unit": "nM"}, {"measurement": "Differential vs mean Log(GI50)", "setting": "HEL92", "result": "−0.160"}, {"measurement": "GI50", "setting": "HEL92; [1]", "result": 0.49, "unit": "nM"}, {"measurement": "GI50", "setting": "HEL92; read-out: GI50", "result": 0.49, "unit": "nM"}, {"measurement": "Differential vs mean Log(GI50)", "setting": "HL60-Luc", "result": "−0.173"}, {"measurement": "GI50", "setting": "HL60-Luc; [1]", "result": 0.505, "unit": "nM"}, {"measurement": "GI50", "setting": "HL60-Luc; read-out: GI50", "result": 0.51, "unit": "nM"}, {"measurement": "Differential vs mean Log(GI50)", "setting": "KM-H2", "result": 0.162}, {"measurement": "GI50", "setting": "KM-H2; [1]", "result": 0.233, "unit": "nM"}, {"measurement": "GI50", "setting": "KM-H2; read-out: GI50", "result": 0.23, "unit": "nM"}, {"measurement": "Differential vs mean Log(GI50)", "setting": "KMS18-Luc", "result": "−0.184"}, {"measurement": "GI50", "setting": "KMS18-Luc; [1]", "result": 0.518, "unit": "nM"}, {"measurement": "GI50", "setting": "KMS18-Luc; read-out: GI50", "result": 0.52, "unit": "nM"}, {"measurement": "GI50", "setting": "LP1; [1]", "result": 0.205, "unit": "nM"}, {"measurement": "GI50", "setting": "LP1; read-out: GI50", "result": 0.21, "unit": "nM"}, {"measurement": "Differential vs mean Log(GI50)", "setting": "LP1; MM", "result": 0.218}, {"measurement": "Differential vs mean Log(GI50)", "setting": "MOLM13-Luc", "result": 0.175}, {"measurement": "GI50", "setting": "MOLM13-Luc; [1]", "result": 0.226, "unit": "nM"}, {"measurement": "GI50", "setting": "MOLM13-Luc; read-out: GI50", "result": 0.23, "unit": "nM"}, {"measurement": "GI50", "setting": "OPM2; [1]", "result": 0.135, "unit": "nM"}, {"measurement": "GI50", "setting": "OPM2; read-out: GI50", "result": 0.14, "unit": "nM"}, {"measurement": "Differential vs mean Log(GI50)", "setting": "OPM2; MM", "result": 0.400}, {"measurement": "GI50", "setting": "RPMI-8226; [1]", "result": 0.262, "unit": "nM"}, {"measurement": "GI50", "setting": "RPMI-8226; read-out: GI50", "result": 0.26, "unit": "nM"}, {"measurement": "Differential vs mean Log(GI50)", "setting": "RPMI-8226", "result": 0.112}, {"measurement": "Differential vs mean Log(GI50)", "setting": "SEM-Luc", "result": 0.354}, {"measurement": "GI50", "setting": "SEM-Luc; [1]", "result": 0.15, "unit": "nM"}, {"measurement": "GI50", "setting": "SEM-Luc; read-out: GI50", "result": 0.15, "unit": "nM"}, {"measurement": "Differential vs mean Log(GI50)", "setting": "SET-2", "result": "−0.001"}, {"measurement": "GI50", "setting": "SET-2; [1]", "result": 0.34, "unit": "nM"}, {"measurement": "GI50", "setting": "SET-2; read-out: GI50", "result": 0.34, "unit": "nM"}]}
